Laboratory results reported in patent publication US11434258B2, “Compounds (immunorhelins)” (ISR IMMUNE SYSTEM REGULATION HOLDING AB (PUBL), priority 2017, dated 2022).
Non-standard residues stand in square brackets, D forms with d. Residues, ends and D or L forms follow the SMILES beside them. *: point of attachment. dHis(τ-Bn) = N[C@H](Cc1cn(Cc2ccccc2)cn1)C(=O)O; d2Nal = N[C@H](Cc1ccc2ccccc2c1)C(=O)O; pGlu = O=C1CC[C@@H](C(=O)O)N1; tBu = CC(C)(C)*

How the values were obtained:
[1] = Stability in aqueous media (PBS pH 7.4); assay type: physicochemical; design: unit not given here; conditions: phosphate buffer solution (PBS); PBS pH 7.4, 37° C., samples at T=0, 4, 24, 96 h; read-out: Stability grading (t1/2)
From the text: LC/MS data was collected for compound identity.

GnRHR = molecular target: T1, GnRHR (Homo sapiens, UniProt P30968); experiment: Calcium assay in CHO-K1 cells (Genscript), FLIPR; assay type: cell-based; conditions: CHO-K1/GnRHR/Ga15 cells, relative to agonist control, read-out: GNRHR Stimulation at 1 μM
T1 construct: host or cells: CHO-K1 (CHO-K1/GnRHR/Ga15)
T1 sequence (P30968 1-328): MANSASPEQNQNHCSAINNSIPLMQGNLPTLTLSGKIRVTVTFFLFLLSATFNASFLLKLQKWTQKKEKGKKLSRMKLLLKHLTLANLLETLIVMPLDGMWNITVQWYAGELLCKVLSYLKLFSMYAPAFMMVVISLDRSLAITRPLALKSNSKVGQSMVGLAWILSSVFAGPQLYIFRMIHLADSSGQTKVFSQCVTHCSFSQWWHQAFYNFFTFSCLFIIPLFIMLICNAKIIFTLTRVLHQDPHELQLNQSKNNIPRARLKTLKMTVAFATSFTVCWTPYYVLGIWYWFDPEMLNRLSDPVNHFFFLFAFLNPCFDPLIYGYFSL
Description: Test article sample solutions were dissolved in HBSS buffer (with 20 mM HEPES buffer, pH 7.4) to form the 5× working solution. FLIPR® Calcium 4 assay kit from Molecular devices (R8141) was used as required. In brief, CHO-K1 cells expressing GnRHR (CHO-K1/GnRHR/Ga15, Genscript accession NM_000406) were respectively cultured in the 10-cm dishes and maintained at 37° C./5% CO2. CHO-K1 cells expressing GNRHR were respectively seeded in a 384-well black-wall, clear-bottom plate at a density of 15,000 cells per well in 20 μl of growth medium about 18 hours prior to the day of experiment and maintained at 37° C./5% CO2. Then, 20 μl of dye loading solution was added into the wells and the plates were subsequently placed into a 37° C. incubator for 60 minutes, followed by a 15 minutes' incubation at room temperature. At last, 10 μl of compounds or control agonist were added into respective wells of the assay plate during reading in FLIPR. The plate containing 5× compound and control agonist solution was placed in FLIPR. Solutions were added into the cell plate automatically at the 20 seconds and the fluorescence signal was monitored for an additional 100 seconds (21 sec to 120 sec.). Data were recorded by ScreenWorks (version 3.1) as FMD files with FLIPR and stored on the GenScript computer network for off-line analysis. Data acquisition and analyses was performed using ScreenWorks (version 3.1) program and exported to Excel. The average value of the first 20 seconds' reading was calculated as the baseline and the relative fluorescent units (ΔRFU) intensity values were calculated by subtracting the average value of baseline from the maximum fluorescent units (21 s to 120 s).
The % Stimulation was calculated with the following equation: % Stimulation=(ΔRFUCompound−ΔRFUBackground)/(ΔRFUAgonist control−ΔRFUBackground)×100
Dose response curves were fitted with four-parameter-logistic-equation by the software GraphPad Prism 6.
Equation: four parameter logistic equation. Y=Bottom+(Top-Bottom)/(1+10^((Log EC50−X)×Hillslope))
X is the logarithm of concentration. Y is the response.

Row | SMILES | half-life at 0.2 mg/ml [1] | activation at 1 µM (GnRHR)
1 | CCNC(=O)[C@@H]1CCCN1C(=O)[C@H](Cc1ccc(O)cc1)NC(=O)[C@H](CC(C)C)NC(=O)[C@@H](Cc1cn(Cc2ccccc2)cn1)NC(=O)[C@H](Cc1ccc(O)cc1)NC(=O)[C@H](CO)NC(=O)[C@H](Cc1c[nH]c2ccccc12)NC(=O)[C@H](Cc1c[nH]cn1)NC(=O)[C@@H]1CCC(=O)N1 [Compound 59, pGlu-His-Trp-Ser-Tyr-D-Bhi-Leu-Tyr-Pro-NHEt] ([pGlu]HWSY[dHis(τ-Bn)]LYP-NHEt) | < 96 | 85%
2 | CCNC(=O)[C@@H]1CCCN1C(=O)[C@H](Cc1ccc(O)cc1)NC(=O)[C@H](Cc1c[nH]c2ccccc12)NC(=O)[C@@H](COC(C)(C)C)NC(=O)[C@H](Cc1c[nH]cn1)NC(=O)[C@H](CO)NC(=O)[C@H](Cc1c[nH]c2ccccc12)NC(=O)[C@H](Cc1c[nH]cn1)NC(=O)[C@@H]1CCC(=O)N1 [Compound 13, pGlu-His-Trp-Ser-His-D-Ser(tBu)-Trp-Tyr-Pro-NHEt] ([pGlu]HWSH[dS](tBu)WYP-NHEt) | > 96 | 87%
3 | CC(C)C[C@H](NC(=O)[C@@H](Cc1ccc2ccccc2c1)NC(=O)[C@H](Cc1c[nH]cn1)NC(=O)[C@H](CO)NC(=O)[C@H](Cc1c[nH]c2ccccc12)NC(=O)[C@H](Cc1c[nH]cn1)NC(=O)[C@@H]1CCC(=O)N1)C(=O)N[C@@H](Cc1ccc(O)cc1)C(=O)N1CCC[C@H]1C(=O)NCC(N)=O [Compound 28, pGlu-His-Trp-Ser-His-D-Nal-Leu-Tyr-Pro-Gly-amide] ([pGlu]HWSH[d2Nal]LYPG-NH2) | > 96 | 95%
4 | CC(C)C[C@H](NC(=O)CNC(=O)[C@H](Cc1ccc(O)cc1)NC(=O)[C@H](CO)NC(=O)[C@H](Cc1c[nH]c2ccccc12)NC(=O)[C@H](Cc1cnc[nH]1)NC(=O)[C@@H]1CCC(=O)N1)C(=O)N[C@@H](CCCNC(=N)N)C(=O)N1CCC[C@H]1C(=O)NCC(N)=O [Gonadorelin, reference compound] | – | 102%
5 | CCNC(=O)[C@@H]1CCCN1C(=O)[C@H](CCCNC(=N)N)NC(=O)[C@H](Cc1c[nH]c2ccccc12)NC(=O)[C@@H](Cc1cn(Cc2ccccc2)cn1)NC(=O)[C@H](Cc1c[nH]cn1)NC(=O)[C@H](CO)NC(=O)[C@H](Cc1c[nH]c2ccccc12)NC(=O)[C@H](Cc1c[nH]cn1)NC(=O)[C@@H]1CCC(=O)N1 [Compound 60, pGlu-His-Trp-Ser-His-D-Bhi-Trp-Arg-Pro-NHEt] ([pGlu]HWSH[dHis(τ-Bn)]WRP-NHEt) | > 96 | 102%
6 | CCNC(=O)[C@@H]1CCCN1C(=O)[C@H](Cc1ccc(O)cc1)NC(=O)[C@H](CC(C)C)NC(=O)[C@@H](CC(C)C)NC(=O)[C@H](Cc1ccc(O)cc1)NC(=O)[C@H](CO)NC(=O)[C@H](Cc1c[nH]c2ccccc12)NC(=O)[C@H](Cc1c[nH]cn1)NC(=O)[C@@H]1CCC(=O)N1 [Compound 45, pGlu-His-Trp-Ser-Tyr-D-Leu-Leu-Tyr-Pro-NHEt] ([pGlu]HWSY[dL]LYP-NHEt) | > 96 | 105%
7 | CCNC(=O)[C@@H]1CCCN1C(=O)[C@H](Cc1ccc(O)cc1)NC(=O)[C@H](Cc1c[nH]c2ccccc12)NC(=O)[C@@H](CC(C)C)NC(=O)[C@H](Cc1ccc(O)cc1)NC(=O)[C@H](CO)NC(=O)[C@H](Cc1c[nH]c2ccccc12)NC(=O)[C@H](Cc1c[nH]cn1)NC(=O)[C@@H]1CCC(=O)N1 [Compound 49, pGlu-His-Trp-Ser-Tyr-D-Leu-Trp-Tyr-Pro-NHEt] ([pGlu]HWSY[dL]WYP-NHEt) | > 96 | 77%
8 | CCNC(=O)[C@@H]1CCCN1C(=O)[C@H](Cc1ccc(O)cc1)NC(=O)[C@H](CC(C)C)NC(=O)[C@@H](Cc1cn(Cc2ccccc2)cn1)NC(=O)[C@H](Cc1c[nH]cn1)NC(=O)[C@H](CO)NC(=O)[C@H](Cc1c[nH]c2ccccc12)NC(=O)[C@H](Cc1c[nH]cn1)NC(=O)[C@@H]1CCC(=O)N1 [Compound 61, pGlu-His-Trp-Ser-His-D-Bhi-Leu-Tyr-Pro-NHEt] ([pGlu]HWSH[dHis(τ-Bn)]LYP-NHEt) | > 96 | 112%
9 | CC(C)C[C@H](NC(=O)[C@@H](Cc1ccc2ccccc2c1)NC(=O)[C@H](Cc1ccc(O)cc1)NC(=O)[C@H](CO)NC(=O)[C@H](Cc1c[nH]c2ccccc12)NC(=O)[C@H](Cc1c[nH]cn1)NC(=O)[C@@H]1CCC(=O)N1)C(=O)N[C@@H](Cc1ccc(O)cc1)C(=O)N1CCC[C@H]1C(=O)NCC(N)=O [Compound 25, pGlu-His-Trp-Ser-Tyr-D-Nal-Leu-Tyr-Pro-Gly-amide] ([pGlu]HWSY[d2Nal]LYPG-NH2) | < 96 | 82%
10 | CCNC(=O)[C@@H]1CCCN1C(=O)[C@H](CCCNC(=N)N)NC(=O)[C@H](CC(C)C)NC(=O)[C@@H](COC(C)(C)C)NC(=O)[C@H](Cc1ccc(O)cc1)NC(=O)[C@H](CO)NC(=O)[C@H](Cc1c[nH]c2ccccc12)NC(=O)[C@H](Cc1cnc[nH]1)NC(=O)[C@@H]1CCC(=O)N1 [Buserelin, reference compound] | – | 94%
11 | N=C(N)NCCC[C@H](NC(=O)[C@H](Cc1c[nH]c2ccccc12)NC(=O)[C@@H](Cc1c[nH]c2ccccc12)NC(=O)[C@H](Cc1c[nH]cn1)NC(=O)[C@H](CO)NC(=O)[C@H](Cc1c[nH]c2ccccc12)NC(=O)[C@H](Cc1c[nH]cn1)NC(=O)[C@@H]1CCC(=O)N1)C(=O)N1CCC[C@H]1C(=O)NCC(N)=O [Compound 20, pGlu-His-Trp-Ser-His-D-Trp-Trp-Arg-Pro-NHEt] | > 96 | 75%
12 | CC(C)C[C@H](NC(=O)[C@@H](Cc1c[nH]c2ccccc12)NC(=O)[C@H](Cc1ccc(O)cc1)NC(=O)[C@H](CO)NC(=O)[C@H](Cc1c[nH]c2ccccc12)NC(=O)[C@H](Cc1c[nH]cn1)NC(=O)[C@@H]1CCC(=O)N1)C(=O)N[C@@H](Cc1ccc(O)cc1)C(=O)N1CCC[C@H]1C(=O)NCC(N)=O [Compound 14, pGlu-His-Trp-Ser-Tyr-D-Trp-Leu-Tyr-Pro-Gly-amide] ([pGlu]HWSY[dW]LYPG-NH2) | > 96 | 78%
13 | CCNC(=O)[C@@H]1CCCN1C(=O)[C@H](CCCNC(=N)N)NC(=O)[C@H](CC(C)C)NC(=O)[C@@H](CC(C)C)NC(=O)[C@H](Cc1ccc(O)cc1)NC(=O)[C@H](CO)NC(=O)[C@H](Cc1c[nH]c2ccccc12)NC(=O)[C@H](Cc1c[nH]cn1)NC(=O)[C@@H]1CCC(=O)N1 [Leuprorelin, reference compound] | – | 107%
14 | CC(C)C[C@H](NC(=O)[C@@H](COC(C)(C)C)NC(=O)[C@H](Cc1ccc(O)cc1)NC(=O)[C@H](CO)NC(=O)[C@H](Cc1c[nH]c2ccccc12)NC(=O)[C@H](Cc1cnc[nH]1)NC(=O)[C@@H]1CCC(=O)N1)C(=O)N[C@@H](CCCNC(=N)N)C(=O)N1CCC[C@H]1C(=O)NNC(N)=O [Goserelin] | – | 99%
15 | CC(C)C[C@H](NC(=O)[C@@H](Cc1ccc2ccccc2c1)NC(=O)[C@H](Cc1ccc(O)cc1)NC(=O)[C@H](CO)NC(=O)[C@H](Cc1c[nH]c2ccccc12)NC(=O)[C@H](Cc1c[nH]cn1)NC(=O)[C@@H]1CCC(=O)N1)C(=O)N[C@@H](CCCNC(=N)N)C(=O)N1CCC[C@H]1C(=O)NCC(N)=O [Nafarelin, reference compound] | – | 100%
